Tested on: pruritus of the scalp
Experiment: Double-blind, placebo-controlled clinical evaluation of scalp itching intensity with shampoos containing 0.5% bisabolol
Format: in vivo, human
Conditions: for itching intensity, Mean +/− SEM: scale of 0-10, washed once a day, volunteers with pruritus of the scalp; for itching intensity, Mean +/− SEM / itching intensity, Δ % mean: shampoo with 0.5% by weight bisabolol; for itching intensity, Δ % mean: D14 versus D0 (T0)
Source text: Comparison of the improvement in skin soothing effect using shampoos formulated with bio-bisabolol, chemically-produced bisabolol and plant-derived bisabolol. Samples of the bio-bisabolol prepared according to Example 1, a commercially-available synthetic bisabolol and a bisabolol derived from chamomile oil were incorporated into shampoo formulations at 0.5% by weight. An untreated sample of the shampoo was included as placebo. A double-blind, inter-individual and placebo-controlled clinical evaluation was performed on 80 volunteers (both men and women of age 18 and over). The subjects had Fitzpatrick skin types I to IV, and all suffered from pruritus of the scalp. The volunteers washed and rinsed their hair once a day and itching intensity was evaluated on days 1 and 14, using a scale of 0-10, where 0 represents no itching and 10 represents […].

CC(C)=CCC[C@@](C)(O)[C@@H]1CC=C(C)CC1 [Example 1 bio-bisabolol, (−)-α-bisabolol]
itching intensity, Mean +/− SEM (D0): 4.3 ± 0.4
itching intensity, Mean +/− SEM (D14): 0.3 ± 0.2
itching intensity, Δ % mean: −93%
reduction in scalp irritation in comparison with the placebo group (after 14 days of application, p<0.1): 25%

CC(C)=CCC[C@](C)(O)[C@@H]1CC=C(C)CC1 [Plant bisabolol]
itching intensity, Mean +/− SEM (D0): 4.8 ± 0.5
itching intensity, Mean +/− SEM (D14): 1.5 ± 0.4
itching intensity, Δ % mean: −69%
reduction in scalp irritation in comparison with the placebo (in words) (after 14 days of application): did not show any significant reduction

CC(C)=CCC[C@](C)(O)[C@@H]1CC=C(C)CC1 [Synthetic bisabolol]
itching intensity, Mean +/− SEM (D0): 4.4 ± 0.5
itching intensity, Mean +/− SEM (D14): 1.3 ± 0.4
itching intensity, Δ % mean: −70%
reduction in scalp irritation in comparison with the placebo (in words) (after 14 days of application): did not show any significant reduction

Source: patent US20240225970A1, “A METHOD OF REDUCING SKIN IRRITATION, COMPRISING THE APPLICATION TO THE SKIN OF AN ALPHA-BISABOLOL PREPARED BY A BIOTECHNOLOGICAL PROCESS” (Givaudan SA, priority 2020, published 2024)
